Test results as given in the supplement of paper PMC10307832.

Key:
[1] = compound: COC1=CC=C(C=C1)CN2C=CC3=C2C=C(C=C3)C(=O)NO + COc1cc2c(Oc3ccc(NC(=O)C4(C(=O)Nc5ccc(F)cc5)CC4)cc3F)ccnc2cc1OCCCN1CCOCC1 [Foretinib] (partner 0.25 µM); assay: relative viability (nuclei count vs DMSO), 5 days (fraction); higher = more cells survive
Summary of the method: (§1)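 Relative viability is defined as nuclei in treated wells over nuclei in vehicle wells. Duplicate plates were run and medians reported. Lung cancer cell lines in 1536-well plates were dosed by pin tool one day after seeding, with one drug or with a fixed anchor-drug dose plus five library-drug doses (not always all listed) in √10 steps, and nuclei were counted after 5 days.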

Veliparib + Tozasertib = compound: C[C@]1(c2nc3c(C(N)=O)cccc3[nH]2)CCCN1 [Veliparib] + Cc1cc(Nc2cc(N3CCN(C)CC3)nc(Sc3ccc(NC(=O)C4CC4)cc3)n2)n[nH]1 [Tozasertib] (partner 0.1 µM); assay: as above
Summary of the method: as §1

Cell Line | relative viability ([1]; first compound 0.253 µM) | relative viability ([1]; first compound 0.8 µM) | relative viability ([1]; first compound 2.53 µM) | relative viability ([1]; first compound 8 µM) | relative viability (Veliparib + Tozasertib; first compound 0.02 µM) | relative viability (Veliparib + Tozasertib; first compound 0.06325 µM) | relative viability (Veliparib + Tozasertib; first compound 0.2 µM) | relative viability (Veliparib + Tozasertib; first compound 0.6325 µM) | relative viability (Veliparib + Tozasertib; first compound 2 µM) | relative viability ([1]; first compound 0.08 µM)
LXF-289 | 0.994 | 1.01 | 1.02 | 1.03 | 0.194 | 0.193 | 0.233 | 0.208 | 0.216 | 
HCC-827 | 1.13 | 1.09 | 1.05 | 0.996 | 0.436 | 0.443 | 0.434 | 0.376 | 0.398 | 0.834
NCI-H1734 | 0.919 | 0.852 | 0.897 | 0.863 | 0.309 | 0.262 | 0.284 | 0.268 | 0.269 | 
NCI-H2087 | 1.15 | 1.17 | 1.03 | 0.962 | 0.258 | 0.235 | 0.222 | 0.203 | 0.27 | 0.659
LCLC-103H | 0.846 | 0.832 | 0.789 | 0.761 | 0.528 | 0.339 | 0.463 | 0.443 | 0.485 | 0.68
NCI-H1299 | 1.1 | 1.15 | 1.09 | 1.05 |  |  |  |  |  | 1.09
RERF-LC-KJ | 0.862 | 0.915 | 0.947 | 0.917 | 0.515 | 0.5 | 0.521 | 0.481 | 0.485 | 0.639
PC-3 [JPC-3] | 1.04 | 1.09 | 1.08 | 0.962 | 0.87 | 0.902 | 0.822 | 0.864 | 0.845 | 1
EKVX | 0.555 | 0.801 | 0.762 | 0.849 | 0.333 | 0.362 | 0.426 | 0.375 | 0.37 | 0.542
NCI-H520 | 0.841 | 0.895 | 0.814 | 0.907 | 0.337 | 0.488 | 0.439 | 0.47 | 0.503 | 0.326
NCI-H1355 | 0.959 | 0.928 | 1.02 | 0.962 |  | 0.534 | 0.559 | 0.507 | 0.539 | 
NCI-H2228 | 1 | 0.933 | 0.857 | 0.609 | 0.31 | 0.318 | 0.352 | 0.176 | 0.353 | 
NCI-H2170 | 0.961 | 0.994 | 1.03 | 1.02 | 0.748 | 0.744 | 0.724 | 0.709 | 0.747 | 0.978
NCI-H441 | 1.26 | 0.943 | 1.03 | 0.844 | 0.633 | 0.608 | 0.529 | 0.541 | 0.683 | 0.933
EBC-1 | 0.0996 | 0.0919 | 0.102 | 0.113 |  |  |  |  |  | 0.0855
NCI-H661 | 1.02 | 1.03 | 0.999 | 0.927 | 0.349 | 0.363 | 0.336 | 0.329 | 0.388 | 
NCI-H1666 | 1.06 | 0.985 | 0.963 | 1.06 | 0.582 | 0.582 | 0.598 | 0.547 | 0.62 | 0.755
NCI-H2347 | 0.527 | 0.991 | 0.775 | 0.575 | 0.55 | 0.501 | 0.492 | 0.553 | 0.541 | 
